# Where two headings read alike, the source gives them in different places.
# What was measured:
# [1] = cited from earlier work
# [2] = Phosphate removal and turbidity in 250 gallon mini-pool
# Experimental: A 250 gallon mini-pool was filled with tap water and balanced with calcium chloride, sodium bicarbonate, sodium bisulfate, and sodium hypochlorite. Sufficient sodium phosphate was added to the pool to give a phosphate concentration of approximately 1.0 ppm (calculated as ortho-phosphate). While mixing, lanthanum chloride was added to the water, where it combined with the phosphate and caused formation of a precipitate. The amount of lanthanum chloride added was sufficient to reduce phosphate concentration to less than 100 ppb. The water was allowed to mix (via stirring) for 15 minutes. […] Samples were taken at intervals during the study, and analyzed for turbidity, phosphate level, and lanthanum level, and in some cases, for pH and total alkalinity. […]
# A 250 gallon mini-pool was filled with tap water and balanced with calcium chloride, sodium bicarbonate, sodium bisulfate, and sodium hypochlorite. Sufficient sodium phosphate was added to the pool to give a phosphate concentration of approximately 1.0 ppm (calculated as ortho-phosphate). […] Samples were taken at intervals during the study, and analyzed for turbidity, phosphate level, and zinc level, and in some cases, for pH and total alkalinity. […]
# Chlorella vulgaris = assay: Algae growth in nutrient medium, serial dilution tubes, visual bottom pellicle formation; format: cell-based; design: key: +++ indicates good growth; ++ indicates scant growth; + indicates very low growth; − indicates no growth
# Experimental: An algae nutrient medium was prepared by mixing the following with 940 mL deionized (DI) water:
# Primary stocks were made by including each of the test compounds in the table below in DI as 100 mL aliquots of 1000 ppm solutions. Working stocks in algae media were made as 128 ppm solutions (13 mL/100 mL DI). These solutions were serially diluted and placed into disposable borosilicate tubes, each containing 5 mL of algae medium. The highest theoretical concentration of each compound tested was 64 ppm; as a result of the serial dilution, concentrations of 32, 16, 8, 4, 2, 1, 0.5, and 0.25 ppm were tested. Each tube as inoculated with 50 μL of 10-12 day old Chlorella vulgaris, having an approximate density of 3.0×10^5 cells/mL. Growth was evaluated in a semi-quantitative fashion by visually observing bottom pellicle formation, which was compared to 2 controls. In the table below, +++ indicates good growth, ++ indicates scant growth, + indicates very low growth, and − indicates no growth.
# [3] = Phosphate removal in full sized swimming pools via Nature2 G cartridge; conditions: Example 6: 7 pools, 15,000 to 27,000 gallons, about 1.0 ppm phosphate, 900 grams per cartridge
# Description: Sufficient sodium phosphate was broadcast to water in 7 full sized swimming pools, ranging in size from 15,000 to 27,000 gallons, to give a phosphate concentration of about 1.0 ppm (calculated as ortho-phosphate). The pools were allowed to mix for at least one hour. A Nature^2 G sized cartridge containing 900 grams of lanthanum chloride was connected to each pool water circulation system, and pumping through the cartridge was initiated, delivering lanthanum to the water. Water samples were taken at intervals and analyzed to determine turbidity, phosphate levels, and lanthanum levels, and in some cases, pH and total alkalinity. Six of the pools had surface cleaners in constant use and the remaining pool used a pool service. Each of the pools was filtered using a pleated cartridge filter. Turbidity of 6 of the 7 pools returned to starting levels (before lanthanum was added to precipitate out the phosphate) after 48 hours. A minimum of 90% of phosphate was removed from each of the pools.
molecule,measurement,setting,value
O=P([O-])([O-])[O-].O=P([O-])([O-])[O-].[Cu+2].[Cu+2].[Cu+2] [Cu3(PO4)2],log Ksp,[1]; metal phosphates,−36.9
[OH-].[OH-].[Zn+2] [Zn(OH)2],log Ksp,[1]; metal hydroxides,−16.5
[OH][Al]([OH])[OH] [Al(OH)3],log Ksp,[1]; metal hydroxides,−32.7
[Cl-].[Cl-].[Zn+2] [zinc chloride],phosphate reduction,"[2]; Example 7: start approx. 1.0 ppm phosphate, within 3 hours, sand filtration",more than 90%
O=S(=O)([O-])[O-].[Cu+2] [CuSO4],Growth of Chlorella vulgaris (bottom pellicle formation),Chlorella vulgaris; 0.25 ppm test compound,++
same,Growth of Chlorella vulgaris (bottom pellicle formation),Chlorella vulgaris; 0.5 ppm test compound,++
same,Growth of Chlorella vulgaris (bottom pellicle formation),Chlorella vulgaris; 1 ppm test compound,+
same,Growth of Chlorella vulgaris (bottom pellicle formation),Chlorella vulgaris; 2 ppm test compound,−
same,Growth of Chlorella vulgaris (bottom pellicle formation),Chlorella vulgaris; 4 ppm test compound,−
same,Growth of Chlorella vulgaris (bottom pellicle formation),Chlorella vulgaris; 8 ppm test compound,−
same,Growth of Chlorella vulgaris (bottom pellicle formation),Chlorella vulgaris; 16 ppm test compound,−
same,Growth of Chlorella vulgaris (bottom pellicle formation),Chlorella vulgaris; 32 ppm test compound,−
same,Growth of Chlorella vulgaris (bottom pellicle formation),Chlorella vulgaris; 64 ppm test compound,−
O=P([O-])([O-])[O-].O=P([O-])([O-])[O-].[Zn+2].[Zn+2].[Zn+2] [Zn3(PO4)2],log Ksp,[1]; metal phosphates,−35.3
CCCCCCCCCCCCN.Cl [Dodecylamine HCl],Growth of Chlorella vulgaris (bottom pellicle formation),Chlorella vulgaris; 0.25 ppm test compound,−
same,Growth of Chlorella vulgaris (bottom pellicle formation),Chlorella vulgaris; 0.5 ppm test compound,−
same,Growth of Chlorella vulgaris (bottom pellicle formation),Chlorella vulgaris; 1 ppm test compound,−
same,Growth of Chlorella vulgaris (bottom pellicle formation),Chlorella vulgaris; 2 ppm test compound,−
same,Growth of Chlorella vulgaris (bottom pellicle formation),Chlorella vulgaris; 4 ppm test compound,−
same,Growth of Chlorella vulgaris (bottom pellicle formation),Chlorella vulgaris; 8 ppm test compound,−
same,Growth of Chlorella vulgaris (bottom pellicle formation),Chlorella vulgaris; 16 ppm test compound,−
same,Growth of Chlorella vulgaris (bottom pellicle formation),Chlorella vulgaris; 32 ppm test compound,−
same,Growth of Chlorella vulgaris (bottom pellicle formation),Chlorella vulgaris; 64 ppm test compound,−
O=P([O-])([O-])[O-].[Al+3] [AlPO4],log Ksp,[1]; metal phosphates,−20.0
[Ce+4].[OH-].[OH-].[OH-].[OH-] [Ce(OH)4],log Ksp,[1]; metal hydroxides,−47.7
[Ce+3].[OH-].[OH-].[OH-] [Ce(OH)3],log Ksp,[1]; metal hydroxides,−22.3
[Cl][La]([Cl])[Cl] [lanthanum chloride],Turbidity reduction,[2]; Example 5: within two hours of beginning filtration (diatomaceous earth),97%
same,phosphate removed,[3],≥ 90%
[La+3].[OH-].[OH-].[OH-] [La(OH)3],log Ksp,[1]; metal hydroxides,−18.5
[Cu+2].[OH-].[OH-] [Cu(OH)2],log Ksp,[1]; metal hydroxides,−19.3
O=P([O-])([O-])[O-].[Ce+3] [CePO4],log Ksp,[1]; metal phosphates,−26.2
O=P([O-])([O-])[O-].[La+3] [LaPO4],log Ksp,[1]; metal phosphates,−25.7
[OH][Sn][OH] [Sn(OH)2],log Ksp,[1]; metal hydroxides,−26.5
Zinc borate,Growth of Chlorella vulgaris (bottom pellicle formation),Chlorella vulgaris; 0.25 ppm test compound,+
same,Growth of Chlorella vulgaris (bottom pellicle formation),Chlorella vulgaris; 0.5 ppm test compound,+
same,Growth of Chlorella vulgaris (bottom pellicle formation),Chlorella vulgaris; 1 ppm test compound,−
same,Growth of Chlorella vulgaris (bottom pellicle formation),Chlorella vulgaris; 2 ppm test compound,−
same,Growth of Chlorella vulgaris (bottom pellicle formation),Chlorella vulgaris; 4 ppm test compound,−
same,Growth of Chlorella vulgaris (bottom pellicle formation),Chlorella vulgaris; 8 ppm test compound,−
same,Growth of Chlorella vulgaris (bottom pellicle formation),Chlorella vulgaris; 16 ppm test compound,−
same,Growth of Chlorella vulgaris (bottom pellicle formation),Chlorella vulgaris; 32 ppm test compound,−
same,Growth of Chlorella vulgaris (bottom pellicle formation),Chlorella vulgaris; 64 ppm test compound,−
